Legend:
Format in all cases: in vivo
[1] = tested on: guinea pig model of allergic asthma (ovalbumin-sensitized); assay: Prevention of allergen-induced AHR by pretreatment, animals challenged with increasing allergen doses until obstruction (protection protocol)
Description: (§1) Outbred male specified pathogen free Dunkin Hartley guinea pigs (Harlan Heathfield, UK) were used in this example. All animals, weighing approximately 250 g, were actively IgE-sensitized to ovalbumin as described by Van Amsterdam et al. [Agents Actions 1989, 26:48-51]. The animals were operated on 2 weeks after sensitization and used experimentally in weeks 4 and 5 after sensitization. The animals were housed in individual cages in climate controlled animal quarters and given water and food ad libitum, while a 12 h on/12 h off light cycle was maintained. All protocols described in this study were approved by the University of Groningen Committee for Animal Experimentation.
(§2) Airway function was assessed by on-line measurement of pleural pressure (Ppl) under unrestrained conditions as described previously [Santing et al., Pulm Pharmacol 1992, 5:265-272; Meurs et al., Nature Protocols 2006, 1:840-847].
(§3) In short, a small fluid filled latex balloon catheter was surgically implanted inside the thoracic cavity. The free end of the catheter was driven subcutaneously to the neck of the animal, where it was exposed and attached permanently. Via an external fluid filled cannula, the pleural balloon catheter was connected to a pressure transducer (TXX R, Viggo-Spectramed, Bilthoven, Netherlands). Ppl (in cm H2O) was measured continuously using an on-line computer system.
(§4) Allergen and histamine provocations were performed by inhalation of aerosolized solutions. These provocations were carried out in a specially designed perspex cage of 9 l, in which the guinea pigs could move freely as previously described [Santing et al.; Meurs et al., both supra]. A DeVilbiss nebulizer (type 646) driven by an airflow of 8 l/min provided the aerosol with an output of 0.33 ml/min. The animals were habituated to the experimental conditions and the provocations procedure at least one week after surgery, when preoperative weight was restored, as described previously [Meurs et al, supra].
(§5) On the experimental days following the habituation procedure, allergen and/or histamine provocations were performed as described below. All provocations were preceded by an adaptation period of at least 30 min, followed by two consecutive control provocations with saline, each provocation lasting 3 min and separated by 7 min intervals. A baseline Ppl value was calculated by averaging the Ppl values from the last 20 min of the adaptation period.
(§6) In order to assess the airway reactivity for histamine, provocations with increasing concentration steps (6.25, 12.5, 25, 50, 75, 100 and 125 μg/ml) in saline were performed. Histamine provocations lasted 3 min and were separated by 7 min intervals. Animals were challenged until Ppl was increased by more than 100% above baseline for at least 3 consecutive minutes. The concentration of histamine causing a 100% increase of Ppl (PC 100) was derived by linear interpolation of the concentration Ppl curve and was used as an index for airway reactivity towards histamine. Ppl returned to baseline within 15 min after the last histamine provocation.
(§7) Allergen provocations were performed by inhalation of increasing concentrations of 0.5, 1.0 or 3.0 mg/ml ovalbumin in saline and were discontinued when the first signs of respiratory distress were observed and an increase in Ppl of more than 100% was reached.
On the first experimental day, the basal histamine PC100 was assessed. The next day, saline was inhaled for 15 min, 0.5 h prior to and at 8 h after allergen inhalation, and histamine PC100 measurements were performed 6 and 24 h post allergen challenge. One week later, the same protocol was repeated with inhalations of either 25 mM ABH (nebulizer concentration) or saline at t=−0.5 and 8 h. All animals were challenged with increasing doses of allergen (0.5, 1 and 3 mg/ml) until obstruction. […]

[2] = tested on: guinea pig model of allergic asthma (ovalbumin-sensitized); assay: Prevention of allergen-induced EAR, LAR and AHR by pretreatment, equal allergen dose for both treatment groups (protection protocol, second experiment)
Description: as §1, §2, §3, §4, §5, §6, §7
In a second experiment, animals were challenged once with allergen. On the first experimental day, the basal histamine PC100 was assessed. The next day, animals were pretreated with either saline or ABH (25 mM; nebulizer concentration) 0.5 h before and 8 h after allergen inhalation. The ABH pretreated animals were challenged with the same allergen dose that caused airway obstruction in the saline treated guinea pigs. […]

[3] = tested on: guinea pig model of allergic asthma (ovalbumin-sensitized, airway responsiveness to inhaled histamine); assay: Reversal of allergen-induced AHR in guinea pig model of allergic asthma (reversion protocol); conditions: for effect on allergen-induced AHR after the EAR (histamine PC100): inhalation at 5.5 h after ovalbumin; for effect on allergen-induced AHR after the EAR (histamine PC100) / effect on allergen-induced AHR after the LAR (histamine PC100) / effect on basal airway responsiveness to inhaled histamine (PC100): ABH 25 mM, L- or D-arginine 1 M nebulizer concentration; for effect on allergen-induced AHR after the LAR (histamine PC100): inhalation at 23.5 h after ovalbumin; for effect on basal airway responsiveness to inhaled histamine (PC100): inhaled 15 min, PC100 30 min before and after inhalation
Description: as §1, §2, §3, §4, §5, §6, §7
On two different occasions, separated by one week interval, guinea pigs were treated either with vehicle (saline) or drug (ABH, L-arginine or D-arginine), to establish the acute effects of these drugs on basal airway responsiveness to histamine as well as on allergen-induced airway hyperresponsiveness (AHR) after the EAR and the LAR (FIG. 2).
On the first experimental day, saline- or drug induced effects on basal histamine reactivity were established. Thirty minutes after the assessment of the basal histamine PC100, an aerosol of saline (control) or 25 mM ABH, 1.0 M L-arginine or 1.0 M D-arginine (nebulizer concentrations) was inhaled for 15 min. […]

[4] = ABH 25 mM nebulizer 0.5 h before and 8 h after allergen, equal allergen dose, mean ± SEM

| SMILES | protection against the AHR after the EAR as compared to saline control ([1]; 25 mM ABH 0.5 h before allergen challenge) | allergen-induced AHR after the LAR, PC100 ratio pre/post challenge ([1]; ABH 25 mM nebulizer 0.5 h before and 8 h after allergen, challenged until obstruction, saline control 2.08±0.31-fold, P<0.005) | allergen-induced AHR after the EAR, PC100 ratio pre/post challenge ([1]; ABH 25 mM nebulizer 0.5 h before and 8 h after allergen, challenged until obstruction, saline control week 1 6.33±1.30-fold, P<0.05) | fold higher ovalbumin needed to induce airways obstruction compared to saline treatment ([1]; ABH week 2 versus saline of the same animals week 1) | occurrence of AHR after the LAR ([1]; additional inhalation of 25 mM ABH at 8 h after allergen challenge) | ovalbumin dose needed to induce airways obstruction ([1]; after pretreatment with ABH 25 mM nebulizer in week 2, saline in same animals week 1 0.04±0.01 mg, P<0.01) | AUC EAR (% change in Ppl time response curve between 0 and 5 h after allergen exposure) [2, 4] | AUC LAR (% change in Ppl time response curve between 8 and 24 h after allergen exposure) [2, 4] | initial peak response in Ppl after allergen challenge (allergen-induced acute bronchial obstruction) ([2]; ABH 25 mM nebulizer versus saline at the same allergen dose, P<0.01) | allergen-induced AHR after the LAR ([2]; equal allergen dose, saline treated 1.68±0.14-fold, P<0.005) | allergen-induced AHR after the EAR ([2]; equal allergen dose, saline treated 4.14±0.59-fold, P<0.01) | AHR100 (PC100 ratio pre/post allergen challenge) after EAR ([2]; histamine PC100 24 h before and 6 h after allergen, ABH 25 mM nebulizer 0.5 h before and 8 h after allergen, equal allergen dose) | AHR100 (PC100 ratio pre/post allergen challenge) after LAR ([2]; histamine PC100 24 h before and 24 h after allergen, ABH 25 mM nebulizer 0.5 h before and 8 h after allergen, equal allergen dose) | allergen-induced AHR after the EAR, PC100 ratio pre/post challenge ([3]; after ABH inhalation (25 mM nebulizer) at 5.5 h after ovalbumin, PC100 at 6 h, from 4.77±0.56-fold before inhalation, P<0.001) | allergen-induced AHR after the LAR, PC100 ratio pre/post challenge ([3]; after ABH inhalation (25 mM nebulizer) at 23.5 h after ovalbumin, PC100 at 24 h, from 1.95±0.23-fold before inhalation, P<0.10) | effect on allergen-induced AHR after the EAR (histamine PC100) [3] | effect on allergen-induced AHR after the LAR (histamine PC100) [3] | effect on basal airway responsiveness to inhaled histamine (PC100) [3] |
| --- | --- | --- | --- | --- | --- | --- | --- | --- | --- | --- | --- | --- | --- | --- | --- | --- | --- | --- |
| N[C@@H](CCCCB(O)O)C(=O)O [ABH, 2(S)-amino-6-boronohexanoic acid] | significant protection | 1.41±0.25 fold | 3.05±0.51 fold | 32.8 fold | almost completely prevented | 1.31 ± 0.69 mg | 983 ± 345 % × 5 min | 1697 ± 1043 % × 5 min | highly significant reduction | 1.02±0.02 fold | 1.58±0.24 fold | 1.58 ± 0.24 | 1.02 | 2.04±0.34 fold | 1.56±0.47 fold | reversed the allergen-induced AHR after the EAR | trend towards a reduction | without effect |
| N=C(N)NCCC[C@@H](N)C(=O)O [D enantiomer of arginine, D-arginine] |  |  |  |  |  |  |  |  |  |  |  |  |  |  |  | did not affect | did not affect | did not affect |
| N=C(N)NCCC[C@H](N)C(=O)O [L-arginine] |  |  |  |  |  |  |  |  |  |  |  |  |  |  |  | reversed to a similar extent as with ABH | reversed to a similar extent as with ABH | did not affect |
